Laboratory results reported in patent publication US5550110A, “Endothelin Antagonists II” (Warner-Lambert Company, priority 1994, dated 1996).
Square brackets hold non-standard residues; d marks the D form. Peptide text beside a SMILES is read from it. * marks the point of attachment. dGly(5-dibenzosuberyl) = N[C@@H](C(=O)O)C1c2ccccc2CCc2ccccc21; For = O=C*

Legend:
[1] = tested on: endothelin receptor (ETA), rabbit renal artery vascular smooth muscle cells; assay: Endothelin Receptor Binding Assay-A (ERBA-A), intact cell binding of [125I]-ET-1; conditions: [125I]-ET-1 25 pM
Protocol: The compounds of Formula I are valuable antagonists of endothelin. […] Thus, the compounds of Formula I were tested for their ability to inhibit [^125 I]-ET-1([^125 I]-Endothelin-1) binding in a receptor assay according to the following procedures: Endothelin Receptor Binding Assay-A (ERBA-A) Intact Cell Binding of [^125 I]-ET-1 The cells used were rabbit renal artery vascular smooth muscle cells grown in a 48-well dish (1 cm^2) (confluent cells). The assay buffer was a medium 199 containing Hanks salts and 25 mM Hepes buffer (Gibco 380-2350AJ), supplemented with penicillin/streptomycin/fungizone (0.5%) and bovine serum albumin (1 mg/mL). Amersham radioiodinated endothelin-1 [^125 I]-ET-1 was used at final concentration of 20,000 cpm/0.25 mL (25 pM). […] Second, remove the assay buffers, place the dish on ice, and add 150 μL of cold assay buffer described above to each well. Third, add […] each of cold [^125 I]-ET-1 and competing ligand to the solution (at the same time if possible). Next, place dish in a 37° C. water bath for about 2 hours and gently agitate the dish every 15 minutes. Discard the radioactive incubation mixture in the sink and wash wells 3 times with 1 mL of cold phosphate buffered saline. Last, add […] of 0.25 molar sodium hydroxide, agitate for 1 hour on a rotator, and then transfer the sodium hydroxide extract to gamma counting tubes and count the radioactivity.

[2] = tested on: endothelin receptor, cultured rabbit renal artery vascular smooth muscle cells; assay: Inhibition of ET-1 stimulated arachidonic acid release (AAR-A); assay type: cell-based; conditions: ET-1 0.3 nM
Protocol: (§1) In Vitro Inhibition of ET-1 Stimulated Arachidonic Acid Release in Cultured Rabbit Vascular Smooth Muscle Cells (AAR-A) or CHO Cells Expressing Rat Recombinant ETB Receptor (AAR-B) by Compounds of Formula I
(§2) Antagonist activity is measured by the ability of added compounds to reduce endothelin-stimulated arachidonic acid release in cultured vascular smooth muscle cells as arachidonic acid release (AAR). [^3 H] Arachidonic Acid Loading Media (LM) is DME/F12+0.5% fetal calf serum (FCS)×0.25 mCi/mL [^3 H] arachidonic acid (Amersham). Confluent monolayers of cultured rabbit renal artery vascular smooth muscle cells (AAR-A) or CHO cells expressing rat recombinant ETB receptor (AAR-B) were incubated in 0.5 mL of the LM over 18 hours, at 37° C., in 5% CO2. The LM was aspirated and the cells were washed once with the assay buffer (Hank's balanced salt solution [BSS]+10 mM HEPES+fatty acid-free BSA (1 mg/mL)), and incubated for 5 minutes with 1 mL of the prewarmed assay buffer. This solution was aspirated, followed by an additional 1 mL of prewarmed assay buffer, and further incubated for another 5 minutes. A final 5-minute incubation was carried out in a similar manner. The same procedure was repeated with the inclusion of 10 μL of the test compound (1 nM to 1 μM) and 10 μL ET-1 (0.3 nM) and the incubation was extended for 30 minutes. This solution was then collected, […] of scintillation cocktail was added, and the amount of [^3 H] arachidonic acid was determined in a liquid scintillation counter.

[3] = target: T1, endothelin receptor (ETB), rat cerebellar membranes (Rattus norvegicus, UniProt P21451); assay: Endothelin Receptor Binding Assay-B (ERBA-B), [125I]-ET-1 binding in rat cerebellar membranes; conditions: [125I]-ET-1 25 pM, read-out: ERRA-B IC50
T1 construct: thaw one aliquot of frozen rat cerebellar membranes (2 mg protein in 0.5 mL); from tissue; host or cells: rat cerebellum (membranes)
T1 sequence (P21451 27-442): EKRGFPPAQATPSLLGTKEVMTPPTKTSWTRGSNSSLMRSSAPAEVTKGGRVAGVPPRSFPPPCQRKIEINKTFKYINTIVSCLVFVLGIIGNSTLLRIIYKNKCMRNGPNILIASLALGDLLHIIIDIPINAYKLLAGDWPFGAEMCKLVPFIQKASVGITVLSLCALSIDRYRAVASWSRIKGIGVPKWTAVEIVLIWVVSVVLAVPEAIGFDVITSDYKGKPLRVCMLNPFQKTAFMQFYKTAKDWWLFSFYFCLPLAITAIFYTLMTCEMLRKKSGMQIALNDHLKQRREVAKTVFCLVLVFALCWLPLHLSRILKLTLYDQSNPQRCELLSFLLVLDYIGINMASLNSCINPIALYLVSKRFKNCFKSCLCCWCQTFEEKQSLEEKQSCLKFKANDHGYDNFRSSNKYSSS
Protocol: Endothelin Receptor Binding Assay-B (ERBA-B) [^125 I]-ET-1 Binding in Rat Cerebellar Membranes
The tissue is made up of 20 mM tris(hydroxymethyl)aminomethane hydrochloride (Trizma) buffer, 2 mM ethylenediaminetetra acetate, 100 μM phenylmethylsulfonyl fluoride.
First, thaw one aliquot of frozen rat cerebellar membranes (2 mg protein in 0.5 mL). Next, add 0.5 mL membrane aliquot to 4.5 mL cold tissue buffer, polytron at 7,500 revolutions per minute for 10 seconds. Finally, dilute tissue suspension 1/100 (0.1 mL suspension+9.9 mL tissue buffer), polytron again, and place ice.
Medium 199 with Hank's salts plus 25 mM Hepes+1 mg/mL bovine serum albumin.
Amersham [^125 I]-ET-1 (aliquots of 2×10^6 cpm per […] aliquot of [^125 I]-ET-1 with 5.2 mL dilution buffer, place on ice until use (final concentration will be 20,000 cpm per tube, or 25 pM).
Add 50 μL each of cold [^125 ]-ET-1 and competing ligand to tubes on ice. Mix in 150 μL of tissue to each tube, vortex briefly, then tap to force all liquids to bottom (total assay volume=250 μL). Then place the tubes in a 37° C. water bath for 2 hours.
Add 2.5 mL cold wash buffer (50 mM Trizma buffer) to each tube, filter, and then wash tube with additional 2.5 mL wash buffer and add to filter. Finally, wash filters with an additional 2.5 mL of cold wash buffer.
Count filters for radioactivity in gamma counter.

[4] = target: T2, rat recombinant ETB receptor (CHO cells) (Rattus norvegicus, UniProt P21451); assay: Inhibition of ET-1 stimulated arachidonic acid release (AAR-B); assay type: cell-based; conditions: ET-1 0.3 nM
T2 construct: expressed in transfected cells; host or cells: CHO cells
T2 sequence (P21451 27-442): T1 sequence (P21451 27-442)
Protocol: as §1, §2

IC50 [1] [nM] | IC50 [2] [nM] | IC50 [3] [nM] | IC50 [4] [nM] | Compound
2500 | 2360 | 3000 | – | CC[C@H](C)[C@H](NC(=O)[C@H](CC(=O)O)NC(=O)[C@H](CC(C)C)NC(=O)[C@@H](N)C1c2ccccc2CCc2ccccc21)C(=O)N[C@H](C(=O)N[C@@H](Cc1c[nH]c2ccccc12)C(=O)O)[C@@H](C)CC [Example 3, L-Bhg-Leu-Asp-Ile-Ile-Trp] (HELM PEPTIDE1{[N[C@H](C(=O)[*:2])C1c2ccccc2CCc2ccccc21].L.D.I.I.W}$$$$V2.0)
18 | 50 | 180 | 62 | CC[C@H](C)[C@H](NC(=O)[C@H](CC(=O)O)NC(=O)[C@H](CC(C)C)NC(=O)[C@H](NC(C)=O)C1c2ccccc2Sc2ccccc21)C(=O)N[C@H](C(=O)N[C@@H](Cc1c[nH]c2ccccc12)C(=O)O)[C@@H](C)CC [Example 5, Ac-D-Txg-Leu-Asp-Ile-Ile-Trp] (HELM PEPTIDE1{[ac].[O=C([C@H](N[*:1])C1c2ccccc2Sc2ccccc21)[*:2]].L.D.I.I.W}$$$$V2.0)
50 | – | 930 | – | CC[C@H](C)[C@H](NC(=O)[C@H](CC(=O)O)NC(=O)[C@H](CC(C)C)NC(=O)[C@@H](NC(C)=O)C1c2ccccc2Oc2ccccc21)C(=O)N[C@H](C(=O)N[C@@H](Cc1c[nH]c2ccccc12)C(=O)O)[C@@H](C)CC [Example 9, Ac-L-Oxn-Leu-Asp-Ile-Ile-Trp] (HELM PEPTIDE1{[ac].[O=C([C@@H](N[*:1])C1c2ccccc2Oc2ccccc21)[*:2]].L.D.I.I.W}$$$$V2.0)
120 | – | 550 | – | CC[C@H](C)[C@H](NC(=O)[C@H](CC(=O)O)NC(=O)[C@H](CC(C)C)NC(=O)[C@H](NC(C)=O)C1c2ccccc2Oc2ccccc21)C(=O)N[C@H](C(=O)N[C@@H](Cc1c[nH]c2ccccc12)C(=O)O)[C@@H](C)CC [Example 10, Ac-D-Oxn-Leu-Asp-Ile-Ile-Trp] (HELM PEPTIDE1{[ac].[O=C([C@H](N[*:1])C1c2ccccc2Oc2ccccc21)[*:2]].L.D.I.I.W}$$$$V2.0)
830 | 320 | 380 | 2400 | CC[C@H](C)[C@H](NC(=O)[C@H](CC(=O)O)NC(=O)[C@H](CC(C)C)NC(=O)[C@H](N)C1c2ccccc2Sc2ccccc21)C(=O)N[C@H](C(=O)N[C@@H](Cc1c[nH]c2ccccc12)C(=O)O)[C@@H](C)CC [Example 13, D-Txg-Leu-Asp-Ile-Ile-Trp] (HELM PEPTIDE1{[N[C@@H](C(=O)[*:2])C1c2ccccc2Sc2ccccc21].L.D.I.I.W}$$$$V2.0)
– | – | 40 | – | CC[C@H](C)[C@H](NC(=O)[C@H](CC(=O)O)NC(=O)[C@H](CCCN=C(N)N)NC(=O)[C@H](NC(C)=O)C1c2ccccc2CCc2ccccc21)C(=O)N[C@H](C(=O)N[C@@H](Cc1c[nH]c2ccccc12)C(=O)O)[C@@H](C)CC [Example 14, Ac-D-Bhg-Arg-ASp-Ile-Ile-Trp] (HELM PEPTIDE1{[ac].[O=C([C@H](N[*:1])C1c2ccccc2CCc2ccccc21)[*:2]].R.D.I.I.W}$$$$V2.0)
68 | – | 30 | – | CC[C@H](C)[C@H](NC(=O)[C@H](Cc1ccccc1)NC(=O)[C@H](CC(=O)O)NC(=O)[C@H](CC(C)C)NC(=O)[C@H](NC(C)=O)C1c2ccccc2CCc2ccccc21)C(=O)N[C@@H](Cc1c[nH]c2ccccc12)C(=O)O [Example 17, Ac-D-Bhg-Leu-Asp-Phe-Ile-Trp] (HELM PEPTIDE1{[ac].[O=C([C@H](N[*:1])C1c2ccccc2CCc2ccccc21)[*:2]].L.D.F.I.W}$$$$V2.0)

Compound | IC50 [1] [nM] | IC50 [2] [nM] | IC50 [3] [nM] | IC50 [4] [nM]
CC[C@H](C)[C@H](NC(=O)[C@H](CC(=O)O)NC(=O)[C@H](CC(C)C)NC(=O)[C@@H](NC(C)=O)C1c2ccccc2CCc2ccccc21)C(=O)N[C@H](C(=O)N[C@@H](Cc1c[nH]c2ccccc12)C(=O)O)[C@@H](C)CC [Example 4, Ac-L-Bhg-Leu-Asp-Ile-Ile-Trp] (HELM PEPTIDE1{[ac].[O=C([C@@H](N[*:1])C1c2ccccc2CCc2ccccc21)[*:2]].L.D.I.I.W}$$$$V2.0) | – | – | 710 | –
CC[C@H](C)[C@H](NC(=O)[C@H](CC(=O)O)NC(=O)[C@H](CC(C)C)NC(=O)[C@@H](N)C1c2ccccc2Sc2ccccc21)C(=O)N[C@H](C(=O)N[C@@H](Cc1c[nH]c2ccccc12)C(=O)O)[C@@H](C)CC [Example 11, L-Txg-Leu-Asp-Ile-Ile-Trp] (HELM PEPTIDE1{[N[C@H](C(=O)[*:2])C1c2ccccc2Sc2ccccc21].L.D.I.I.W}$$$$V2.0) | 4500 | – | 2100 | –
CC[C@H](C)[C@H](NC(=O)[C@H](CC(=O)O)NC(=O)[C@H](CC(C)C)NC(=O)[C@@H](NC(C)=O)C1c2ccccc2Sc2ccccc21)C(=O)N[C@H](C(=O)N[C@@H](Cc1c[nH]c2ccccc12)C(=O)O)[C@@H](C)CC [Example 12, Ac-L-Txg-Leu-Asp-Ile-Ile-Trp] (HELM PEPTIDE1{[ac].[O=C([C@@H](N[*:1])C1c2ccccc2Sc2ccccc21)[*:2]].L.D.I.I.W}$$$$V2.0) | 1500 | – | 2100 | –
CC[C@H](C)[C@H](NC(=O)[C@@H](NC(=O)[C@H](CC(=O)O)N(C)C(=O)[C@H](CC(C)C)NC(=O)[C@H](NC(C)=O)C1c2ccccc2CCc2ccccc21)[C@@H](C)CC)C(=O)N[C@@H](Cc1c[nH]c2ccccc12)C(=O)O [Example 15, Ac-D-Bhg-Leu-N-MeAsp-Ile-Ile-Trp] (HELM PEPTIDE1{[ac].[O=C([C@H](N[*:1])C1c2ccccc2CCc2ccccc21)[*:2]].L.[meD].I.I.W}$$$$V2.0) | – | – | 1900 | –
CC[C@H](C)[C@H](NC(=O)[C@H](CC(=O)O)NC(=O)[C@H](CCCNC(=N)N)NC(=O)[C@H](NC(C)=O)C1c2ccccc2CCc2ccccc21)C(=O)N[C@H](C(=O)N[C@@H](Cc1cn(C=O)c2ccccc12)C(=O)O)[C@@H](C)CC [Example 18, Ac-D-Bhg-Arg-Asp-Ile-Ile-Trp(For)] (Ac-[dGly(5-dibenzosuberyl)]RDIIW(For)-OH) | 79 | – | 4900 | –
